Each structure is given as a SMILES string.

Test [1] has as its system PAXF1657 control empty vector cell line. Put plainly: 7-day proliferation assay, PAXF1657 control empty vector cell line (Example 9). Type of test: cell-based. As to conditions: 168 h; Cell Line: PAXF1657 empty vector (EV) cell line; 7-day; read-out: C: 7-day proliferation assay: IC50 GeoMean. As to the method:
In order to identify compounds specific for GRK2, we generated two isogenic cell line pairs of the pancreatic cancer cell line PAXF1657, a pair of cells stably overexpressing GRK2 cDNA or the control empty vector and a cell line pair of PAXF1657 GRK2 knockout clonal cells versus non-targeting control clonal cells.
Proliferation Assay: Cellular anti-proliferative activity of compounds was assessed by using the pancreatic cancer cell line, PAXF1657, stably overexpressing GRK2 cDNA or the control empty vector, as well as the parental urinary bladder cancer cell line, 5637. In addition, we also took advantage of GRK2 knockout cell lines that were generated via CRISPR. Cell lines were seeded into tissue culture treated, white-walled, 96-well plates at a density of 500 cells/well in RPMI1640 media supplemented with 10% H.I. FBS and penicillin/streptomycin. Plates were incubated overnight at 37° C., 5% CO2 to allow cells to adhere to the wells. GRK2 inhibitors were added to the cells using a 10-point dilution series with a final concentration ranging from 30 μM-0.0002 μM in 0.3% DMSO. At the time of compound addition, a set of plates, that were not treated with compounds, were collected and cell viability was measured using CellTiter-Glo (Promega). CellTiter-Glo reagent was added to the designed plates and luminescence was measuring using a Biotek Synergy plate reader. The compound treated cells were incubated for 3 days at 37° C., 5% CO2. The media was then aspirated from each well and replaced with fresh media containing GRK2 inhibitors. The compound treated cells were then incubated for an additional 4 days at 37° C., 5% CO2. Cell viability was assessed and at end of the 7-day compound treatment by CellTiterGlo.

In test [2] the target is T1, GRK2 (Homo sapiens, UniProt P25098).
T1 construct: purchased SignalChem A14-10G
T1 sequence (P25098 1-689): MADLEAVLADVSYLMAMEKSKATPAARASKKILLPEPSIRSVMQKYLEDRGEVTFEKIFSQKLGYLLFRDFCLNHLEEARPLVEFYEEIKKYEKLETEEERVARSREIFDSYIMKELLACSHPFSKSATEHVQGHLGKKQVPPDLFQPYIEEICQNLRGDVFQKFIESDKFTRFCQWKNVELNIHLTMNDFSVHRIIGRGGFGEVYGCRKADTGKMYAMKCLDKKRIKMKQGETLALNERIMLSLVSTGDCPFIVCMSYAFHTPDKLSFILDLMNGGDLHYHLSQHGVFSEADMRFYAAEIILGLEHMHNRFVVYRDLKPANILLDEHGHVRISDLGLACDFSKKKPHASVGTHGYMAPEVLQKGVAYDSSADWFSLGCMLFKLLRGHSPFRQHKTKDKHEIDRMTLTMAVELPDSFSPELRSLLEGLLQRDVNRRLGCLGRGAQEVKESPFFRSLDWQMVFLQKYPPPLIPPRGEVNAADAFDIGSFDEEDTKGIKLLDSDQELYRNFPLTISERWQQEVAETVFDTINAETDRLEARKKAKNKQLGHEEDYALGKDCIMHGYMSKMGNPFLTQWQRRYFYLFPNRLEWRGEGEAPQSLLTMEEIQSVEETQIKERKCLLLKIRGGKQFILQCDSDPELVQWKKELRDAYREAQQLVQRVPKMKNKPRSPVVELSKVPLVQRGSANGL
As to the kind of experiment: ADPGlo GRK2 Inhibition Assay (Example 8). As to conditions: ADPGlo GRK2 enzyme assay; read-out: A: Enzymatic GRK2: IC50 (nM) (Example 8). Type of test: biochemical. Here is the method:
HTS was performed using 1 μM compound.
Compounds were dissolved in 100% DMSO, serially diluted tree-fold from 100 μM concentration to 46 nM and transferred (50 nL) into assay ready plate.
Materials: GRK2 was purchased from SignalChem (Cat #A14-10G, Lot #X^645-3). Substrate GRKtide was from SignalChem (Cat #G46-58, Lot #R339-6). ADP-Glo Kinase Assay from Promega (Cat #V9102). Assay buffer consisted of 25 mMv HEPES (pH7.5), 10 mMv MgCl2, 0.01% Tween-20, 1 mM DDT. 384-well white plates were from Greiner […] (Item #784075).
HTS protocol: Take 384 well plate with 50 nL of compound in columns 3-22/DMSO solution 1-2,23-24. Add 2.5 μL assay buffer to columns 23 and 24 using Thermo Scientific Multidrop Combi Dispenser. Add 2.5 μL of 2× enzyme solution (15 nM in 1× assay buffer) using Thermo Scientific Multidrop Combi Reagent Dispenser to all columns except of 23 and 24. Incubate for 15 minutes. Fill plate with 2.5 μL of 2× substrate mix (20 μM ATP and 0.6 mg/nt GRKtide in Ix assay buffer) using Thermo Scientific Multidrop Combi Reagent Dispenser. Spin 15 seconds at 1000 rpm and incubate for 180 min at room temperature. Add 5 μL ADP-Glo reagent to all the wells. Spin 15 seconds at 1000 rpm and incubate for 40 min at room temperature. Add 10 μL Detection solution to all the wells. Incubate for 30 min at room temperature. Read plate in Luminescent modeon BMG PheraStar FSX (gain=3600).
Data Analysis: Data were analyzed in GraphPad Prism 8.0.2. Each HTS plate contains compounds in columns 3-22, controls (enzyme, no compound) in columns 1 and 2, and blanks (no enzyme) in columns 23 and 24. HTS percent inhibition was calculated for each compound from the signal in luminescence units and the mean of the plate controls and the mean of the plate blanks using the following equation: % Inhibition=100*(1−((signal-blank mean)/(control mean-blank mean))). At the final stage of data processing, we obtain dose-response curves, tables and SDF-files with the results of screening for each substance.

In the case of `Cn1c(CNc2cccc(C(=O)NC3(c4nccs4)CCCC3)c2)nnc1-c1ccncn1`, the IC50 in test [1] was more than 10 µM.
Still for that read-out and setting: for `Cn1c(CNc2cccc(C(=O)NCc3ncoc3C(F)(F)F)c2)nnc1-c1ccncn1` the value was more than 10 µM; for `Cn1c(CNc2cccc(C(=O)NCc3cc(C(F)(F)F)ccn3)c2)nnc1-c1ccncn1`, more than 10 µM.
Regarding `C[C@H](NC(=O)c1cccc(NCc2nnc(-c3ccncn3)n2C)c1)c1cncc(F)c1`, the IC50 in test [1] was determined as 2.3 µM.
On to `Cn1c(CNc2cccc(C(=O)NCc3cn[nH]c3)c2)nnc1-c1ccncn1`, for which the IC50 in test [1] was more than 10 µM.
On the same count and under the same terms, for `COc1cccc(CNC(=O)c2cccc(NCc3nnc(-c4ccncn4)n3C)c2)c1OC` the value was more than 10 µM.
For the compound `Cn1c(CNc2cccc(C(=O)NCc3ccnc(C(F)(F)F)c3)c2)nnc1-c1ccncn1`, in test [1], the IC50 worked out at 0.995 µM.
The same measure, in the same setting: for `COc1ccnc(CNC(=O)c2cccc(NCc3nnc(-c4ccncn4)n3C)c2)c1` the value was 3.15 µM; for `Cc1ccnc(CNC(=O)c2cccc(NCc3nnc(-c4ccncn4)n3C)c2)n1`, more than 10 µM.
In the case of `Cn1c(CNc2cccc(C(=O)NCc3ncccn3)c2)nnc1-c1ccncn1`, the IC50 in test [1] is more than 10 µM.
Still for that read-out and setting: then `Cn1cc2c(n1)CCCC2NC(=O)c1cccc(NCc2nnc(-c3ccncc3)[nH]2)c1` (stereo not drawn), with more than 10 µM; and `Cc1cc(CNC(=O)c2cccc(NCc3nnc(-c4ccncc4)[nH]3)c2)ccn1`, with more than 10 µM; and `Cc1nc(C)c(CNC(=O)c2cccc(NCc3nnc(-c4ccncc4)[nH]3)c2)o1`, with more than 10 µM.
On the same count and under the same terms, then `CCn1nc(C)c(CNC(=O)c2cccc(NCc3nnc(-c4ccncc4)[nH]3)c2)c1C`, with more than 10 µM.
Still for that read-out and setting: then `O=C(NC[C@H]1COCCO1)c1cccc(NCc2nnc(-c3ccncc3)[nH]2)c1`, with 1.12 µM; and `O=C(NCc1ccncc1OCC(F)F)c1cccc(NCc2nnc(-c3ccncc3)[nH]2)c1`, with more than 10 µM.
Turning to `O=C(NC1(c2ncccn2)CC1)c1cccc(NCc2nnc(-c3ccncc3)[nH]2)c1`, the IC50 in test [1] is more than 10 µM.
The same measure, in the same setting: then `CCn1nnc(C)c1CNC(=O)c1cccc(NCc2nnc(-c3ccncc3)[nH]2)c1`, with 0.651 µM; and `C[C@H](NC(=O)c1cccc(NCc2nnc(-c3ccncc3)[nH]2)c1)c1ccncc1`, with more than 10 µM.
On the same count and under the same terms, then `CO[C@H]1C[C@H](CNC(=O)c2cccc(NCc3nnc(-c4ccncc4)[nH]3)c2)C1`, with more than 10 µM; and `Cn1c(CNC(=O)c2cccc(NCc3nnc(-c4ccncc4)[nH]3)c2)nnc1C1CCC1`, with more than 10 µM; and `O=C(NCC1(F)CCC1)c1cccc(NCc2nnc(-c3ccncc3)[nH]2)c1`, with 3.22 µM.
On the same count and under the same terms, for `CC1(CNC(=O)c2cccc(NCc3nnc(-c4ccncc4)[nH]3)c2)CCCOC1` (stereo not drawn) the value was more than 10 µM; for `COc1cnccc1C(C)NC(=O)c1cccc(NCc2nnc(-c3ccncc3)[nH]2)c1` (stereo not drawn), more than 10 µM; for `CCn1nccc1C(C)NC(=O)c1cccc(NCc2nnc(-c3ccncc3)[nH]2)c1` (stereo not drawn), more than 10 µM.
As to `CN1CCC(CNC(=O)c2cccc(NCc3nnc(-c4ccncc4)[nH]3)c2)C1=O` (stereo not drawn), in test [1], the IC50 was more than 10 µM.
Still for that read-out and setting: for `O=C(NCc1nnc2n1CCCC2C(F)(F)F)c1cccc(NCc2nnc(-c3ccncc3)[nH]2)c1` (stereo not drawn) the value was more than 10 µM; for `O=C(NCC1CC1(F)F)c1cccc(NCc2nnc(-c3ccncc3)[nH]2)c1` (stereo not drawn), more than 10 µM; for `COC[C@H](NC(=O)c1cccc(NCc2nnc(-c3ccncc3)[nH]2)c1)c1cccnc1`, more than 10 µM.
As to `C[C@H](NC(=O)c1cccc(NCc2nnc(-c3ccncc3)[nH]2)c1)c1ccnn1C`, the IC50 in test [1] came out at 9.81 µM.
Same read-out and setting: for `Cc1nn(C)c(C)c1CNC(=O)c1cccc(NCc2nnc(-c3ccncc3)[nH]2)c1` the value was more than 10 µM; for `O=C(NCc1cccnc1-n1ccnc1)c1cccc(NCc2nnc(-c3ccncc3)[nH]2)c1`, more than 10 µM; for `Cc1nnc(CNC(=O)c2cccc(NCc3nnc(-c4ccncc4)[nH]3)c2)n1C`, more than 10 µM.
On the same count and under the same terms, then `C[C@H](NC(=O)c1cccc(NCc2nnc(-c3ccncc3)[nH]2)c1)c1cnnn1C`, with more than 10 µM.
Same read-out and setting: for `COCCn1nc(C)c(CNC(=O)c2cccc(NCc3nnc(-c4ccncc4)[nH]3)c2)c1C` the value was more than 10 µM; for `Cc1n[nH]cc1CNC(=O)c1cccc(NCc2nnc(-c3ccncc3)[nH]2)c1`, more than 10 µM.
Regarding `Cn1cnnc1CNC(=O)c1cccc(NCc2nnc(-c3ccncc3)[nH]2)c1`, in test [1], the IC50 was more than 10 µM.
The same measure, in the same setting: then `Cn1ncnc1CNC(=O)c1cccc(NCc2nnc(-c3ccncc3)[nH]2)c1`, with more than 10 µM; and `CCn1cnnc1CNC(=O)c1cccc(NCc2nnc(-c3ccncc3)[nH]2)c1`, with more than 10 µM; and `CCn1nccc1CNC(=O)c1cccc(NCc2nnc(-c3ccncc3)[nH]2)c1`, with 0.739 µM.
As for `CCn1ncnc1CNC(=O)c1cccc(NCc2nnc(-c3ccncc3)[nH]2)c1`, the IC50 in test [1] was more than 10 µM.
As for `O=C(NCc1ccncn1)c1cccc(NCc2nnc(-c3ccncc3)[nH]2)c1`, in test [1], the IC50 was more than 10 µM.
`O=C(NCc1cccnn1)c1cccc(NCc2nnc(-c3ccncc3)[nH]2)c1`: the IC50 in test [1] was more than 10 µM.
The same measure, in the same setting: then `COCCn1cc(C(C)NC(=O)c2cccc(NCc3nnc(-c4ccncc4)[nH]3)c2)cn1` (stereo not drawn), with more than 10 µM.
On the same count and under the same terms, then `CC(NC(=O)c1cccc(NCc2nnc(-c3ccncc3)[nH]2)c1)c1ncnn1C` (stereo not drawn), with more than 10 µM; and `CN(C)CCC(NC(=O)c1cccc(NCc2nnc(-c3ccncc3)[nH]2)c1)c1ccccc1` (stereo not drawn), with more than 10 µM.
As for `CC(NC(=O)c1cccc(NCc2nnc(-c3ccncc3)[nH]2)c1)c1cn[nH]c1` (stereo not drawn), the IC50 in test [1] came out at 0.323 µM.
On to `O=C(NCc1nnc2n1CCC(C(F)(F)F)C2)c1cccc(NCc2nnc(-c3ccncc3)[nH]2)c1` (stereo not drawn), for which the IC50 in test [1] came to 89.3 µM.
For the compound `CC(NC(=O)c1cccc(NCc2nnc(-c3ccncc3)[nH]2)c1)c1ncn(C)n1` (stereo not drawn), the IC50 in test [1] is more than 10 µM.
On the same count and under the same terms, then `CN(C)CCC(NC(=O)c1cccc(NCc2nnc(-c3ccncc3)[nH]2)c1)c1cccnc1` (stereo not drawn), with more than 10 µM; and `CC(NC(=O)c1cccc(NCc2nnc(-c3ccncc3)[nH]2)c1)c1nncn1C` (stereo not drawn), with more than 10 µM; and `CCOc1ccccc1CNC(=O)c1cccc(NCc2nnc(-c3ccncc3)[nH]2)c1`, with more than 30 µM.
In the case of `COc1cccc([C@@H](C)NC(=O)c2cccc(NCc3nnc(-c4ccncc4)[nH]3)c2)c1`, in test [2], the IC50 was 81.6 nM.
As to `Cc1csc(CNC(=O)c2cccc(NCc3nnc(-c4ccncn4)n3C)c2)n1` [drawing 407], the IC50 in test [1] was found to be 0.862 µM.

(Values after patent US20230009608A1, “GRK2 INHIBITORS AND USES THEREOF” (Cygnal Therapeutics, Inc., priority 2020, published 2023).)
